Measured values as given in US20260108496A1, “METHODS FOR REPROGRAMING EXHAUSTED T CELLS AND BOOSTING IMMUNE CHECKPOINT BLOCKADE THERAPY FOR CANCER” (Ohio State Innovation Foundation, priority 2022, published 2026).

Columns and labels:
B16-F10-LCMV-GP tumor = type: in vivo, C57BL/6 mice; conditions: therapy initiated after tumor development, i.p. every 2 days, through day 17
human CD8+ T cells [1] = assay: whole-genome bisulfite sequencing of human CD8+ T cells; type: cell-based
Experimental: Human CD8+ T cells were sorted on days 0 (naïve), 7, and 28, and genomic DNA was extracted and bisulfite-treated to convert unmethylated cytosine to uracil residues using the EZ DNA Methylation-Direct Kit (Zymo). DNA libraries were prepared using Swift Accel-NGS® D Methyl-Seq DNA Library Kit according to the manufacturer's protocol. The libraries were purified by the AMPureXP Beads followed by QC using Qubit method, and the purified DNA was captured on an Illumina flow cell for cluster generation. Libraries were sequenced on the NovaSeq-S2 platform following the manufacturer's protocols. Sequencing data were aligned to the Hg38 genome using BSMAP. Adapter were trimmed from FASTQ sequences (trimglore) and mapped to the hg38 genome using the BSMAP v. 2.74 software. CpGs were extracted by the methratio.py in the BSMAP package. Differential analysis of CpG methylation among the datasets was determined with a Bayesian hierarchical model to detect regional methylation differences with at least three CpG site. Differentially methylated regions (DMRs) were identified using Bioconductor package DSS and custom R scripts with a threshold of 30% change in methylation ratio and P-value <0.01 with at least 10 reads per CpG site as a cutoff.

[2] = test system: LCMV-specific CD8+ T cells; type: in vivo, C57BL/6 mice; conditions: treatment followed by anti-PD-L1
human CD8+ T cells [3] = assay: RNA-sequencing of human CD8+ T cells; type: cell-based
Experimental: RNA was isolated using PicoPure™ RNA Isolation Kit (Applied Biosystems) from frozen cell pellets of human CD8+ T cells that were FACS-purified from days 0 (naïve), 7, and 28. Following the kit protocol. Partek Flow was used for RNA-seq analysis. In brief, pre-alignment QC/QA analysis was performed on the FASTQ files, followed by read alignment on human whole genome hg38 using STAR. The aligned reads were quantified to the hg38 RefSeq Transcripts 98 using the Quantify to annotation model on Partek and gene counts were filtered (exclude features where maximum <50.0). Filtered gene counts were normalized using median ratio for DESeq2 analysis to measure differential gene expression among different populations of CD8+ T cells. Differentially expressed genes (DEGs) were identified for genes showing fold change ≥2 and p-value 0.05.

Dysf. CD8+ T cells = assay: reprogramming treatment of Dysf. (chronic TCR plus TGFβ1) human CD8+ T cells; type: cell-based
Experimental: On day 7, viable CD8+ T cells were FACS-purified using the Sony MA900 cell sorter. Purified CD8+ T cells were then continuously stimulated in plates coated with anti-CD3 only (5 ug/ml). Media was replenished every 2-3 days, and cells were incubated at 37 C and 5% CO2 throughout the duration of the experiment. Human TGFβ1 (5 ng/ml, Peprotech) was added to the media starting on day 7. Treatment with RepSox (25 μM) and SB4 (10 μM) (MedChemExpress LLC) or vehicle control (DMSO, ThermoFisher) were added to the media starting on day 14 or 21. Vitamin C (100 μM, MedChemExpress LLC) was added to the media starting on day 21. For the acute TCR stimulation condition, anti-CD3 was no longer added to the media starting on day 7. For recovery experiments in FIG. 16 and FIGS. 22 and 26, CD8+ T cells were rested from TCR stimulation and TGFβ1 starting on day 28 for 7-14 days in T cell media containing recombinant human IL-15 only (10 ng/ml).
(§1) On days 7, 14, 21, and 28 (and day 35 and 42 for recovery experiments), human CBMCs were stimulated with PMA/Ionomycin (Cell Stimulation Cocktail plus protein transport inhibitors, eBioscience) for 3 hours at 37° C., 5% CO2. Incubation was followed immediately by antibody intracellular staining for flow cytometry.
Human CBMCs from ex vivo stimulation experiments (acute or chronic TCR, and chronic TCR+TGFβ1) were labeled with 5(6)-Carboxyfluorescein diacetate N-succinimidyl ester (CFSE) (1 μM, Sigma) by staining in PBS for 7 minutes at room temperature, followed by quenching with 20% FBS. Proliferation was tracked on days 35 and 42 by assessing CFSE fluorescence via flow cytometry. Each peak of CFSE fluorescence signal represents one cell division cycle.

P14 CD8 T cells = assay: in-vitro co-culture of P14 CD8 T cells with CT2A-gp33 tumor cells (Example 1); type: cell-based, mouse
Description: To study their epigenetic (re)programming, we developed a novel in-vitro model of CD8 T cell exhaustion. First, we optimized conditions for in-vitro co-culture of gp33-expressing murine brain tumor cells (CT2A-gp33) and TCR transgenic gp33-specific CD8 T cells (P14 cells). We were able to enforce differentiation of anti-tumor CD8 T cells under their persistent TCR stimulation by repeated exposure to the tumor antigen and tumor-derived factors, such as TGFβ1. […] However, with prolonged exposure to the tumor antigen, the effector CD8 T cells progressively lose cytokine production and tumor killing activity (FIGS. 8A, 8B, and 8C).
To assess the impact of TGFβ1 signaling on the progression of CD8 T cells toward dysfunction, we treated co-cultures with TGFβ1 or RepSox (also known as E-616452) (2-(3-(6-Methylpyridine-2-yl)-1H-pyrazol-4-yl)-1,5-naphthyridine) as shown in the formula: […]
RepSox is a potent selective inhibitor of the TGFβ type 1 receptor (ALK5)—for 11 days after effector differentiation was complete (day 6).
We also examined the impact of BMP-2/4 signaling on RepSox-treated P14 CD8 T cells. […] Taken together, our findings indicate that TGFβ1-signaling not only accelerates the development of T cell dysfunction, but also maintains silencing of lymphoid homing markers on CD8 T cells. Importantly, our findings support the feasibility of using this novel in-vitro model as a tractable tool that can guide our in-vivo work by providing first-line mechanistic studies.

human CD8+ T cells [4] = assay: BMP4 agonist treatment of human CD8+ T cells under chronic strong TCR stimulation; type: cell-based
Description: To determine whether activating the SMAD1/5-dependent pathway attenuates a progression of chronically stimulated T cells to dysfunction, we augmented SMAD1/5-signaling using SB4 (2-[[(4-Bromophenyl)methyl]thio]benzoxazole), as shown in the formula: […]
SB4 is a selective small molecule BMP4 agonist (BMP4a) that stabilizes SMAD1/5 phosphorylation—in human CD8+ T cells under chronic strong TCR stimulation (FIG. 15a). […] CD39, CD103, and CD101 (FIG. 15e-i). Importantly. […] Taken together, these findings reveal a novel role for BMP4 signals in reversing exhaustion features and enhancing the survival of chronically stimulated CD8+ T cells.
For “Weak TCR” stimulation, 30 ng/ml of purified monoclonal anti-human CD3 (clone: OKT3; BioLegend) was continuously added onto the seeded CBMCs to provide TCR stimulation plus natural costimulation via CD80/CD86 on Fc-expressing CBMCs that survive in the first few days. For “Strong TCR” stimulation setting, flat-bottom plates were coated with purified monoclonal anti-human CD3 (5 ug/ml) and anti-human CD28 (1 ug/ml) (clone: CD28.2; BioLegend) at 4° C. overnight, then CMBCs were isolated and seeded in complete T cell medium as described above on day 0. On day 7, viable CD8+ T cells were FACS-purified using the Sony MA900 cell sorter. Purified CD8+ T cells were then continuously stimulated in plates coated with anti-CD3 only (5 ug/ml). Media was replenished every 2-3 days, and cells were incubated at 37 C and 5% CO2 throughout the duration of the experiment. Human TGFβ1 (5 ng/ml, Peprotech) was added to the media starting on day 7. […] Vitamin C (100 μM, MedChemExpress LLC) was added to the media starting on day 21. For the acute TCR stimulation condition, anti-CD3 was no longer added to the media starting on day 7. For recovery experiments in FIG. 16 and FIGS. 22 and 26, CD8+ T cells were rested from TCR stimulation and TGFβ1 starting on day 28 for 7-14 days in T cell media containing recombinant human IL-15 only (10 ng/ml).
as §1

[5] = monotherapy, in the absence of TGFβ R1 blocker

Q: Which tumor control (B16-F10-LCMV-GP tumor) does the source give for `Cc1cccc(-c2n[nH]cc2-c2ccc3ncccc3n2)n1` [RepSox, 2-(3-(6-Methylpyridine-2-yl)-1H-pyrazol-4-yl)-1,5-naphthyridine] here?
A: modest tumor control

Q: And the “DNA methylation patterns in Dysf. CD8+ T cells” value (human CD8+ T cells [1]; RepSox alone, day 28)?
A: induced distinct methylation patterns

Q: What about the “dysfunctional CD8+ T cell responses during anti-PD-L1 treatment” value [2] of the same molecule?
A: did not improve

Q: What about the “expression of effector function-related and memory-related genes” value (human CD8+ T cells [3]; TGFBR1 blockade alone, Dysf. CD8+ T cells, day 28) of the same molecule?
A: restored substantial expression levels

Q: And the “ACVR1 and ACVR2A expression” value (human CD8+ T cells [3]; normalized RNA levels, chronic stimulation)?
A: increased expression

Q: What about the “effector molecules (IFNγ, TNFα, CD107a, T-bet)” value (Dysf. CD8+ T cells; RepSox alone, day 28) of the same molecule?
A: restored

Q: And the “surface markers associated with terminal dysfunction (CD101, PD-1, LAG3)” value (Dysf. CD8+ T cells; RepSox alone, day 28)?
A: downregulated

Q: And the effector cytokine production (Dysf. CD8+ T cells; sorted most dysfunctional subset (CD107a low CD11a low), RepSox 2 weeks)?
A: significantly recovered

Q: What about the “CD62L (L-selectin) expression” value (P14 CD8 T cells; P14 CD8 T cells) of the same molecule?
A: restored

Q: What about the “levels of PD-1” value (P14 CD8 T cells; P14 CD8 T cells) of the same molecule?
A: maintained high levels

Q: What about the tumor killing activity (P14 CD8 T cells; persistently stimulated P14 cells, treatment from day 6) of the same molecule?
A: preserved

Q: What about the “effector function (expression of IFNγ, T-bet and Gzmb)” value (P14 CD8 T cells; relative to Day 6-effector CD8 T cells) of the same molecule?
A: boosted the effector function

Q: Which results are given for `Brc1ccc(CSc2nc3ccccc3o2)cc1` [SB4, 2-[[(4-Bromophenyl)methyl]thio]benzoxazole]?
A: tumor control (B16-F10-LCMV-GP tumor): modest tumor control; DNA methylation patterns in Dysf. CD8+ T cells (human CD8+ T cells [1]; combined with RepSox): more pronounced; dysfunctional CD8+ T cell responses during anti-PD-L1 treatment [2]: did not improve; expression of genes regulating T cell co-stimulation, chemotaxis and stemness (CD28, FOSB, FCGR3A, CXCL8, POU2F2) (human CD8+ T cells [3]; Reprog.II versus Reprog.I): re-activated expression; expression of exhaustion-associated molecules (PD-1, LAG3, CD39, CD103, CD101) (human CD8+ T cells [4]; day 21): reducing the expression; numbers of persistently stimulated CD8+ T cells (human CD8+ T cells [4]; day 21): rescued significantly higher numbers; proliferation activity (Ki67) (human CD8+ T cells [4]; day 21): without increasing; polyfunctionality (human CD8+ T cells [4]; day 21, treatment day 7-21, after PMA/Ionomycin): significantly increased; expression levels of terminal dysfunction molecules (Dysf. CD8+ T cells; in RepSox-treated Dysf. CD8+ T cells): further reducing; effector function of Dysf. CD8+ T cells (Dysf. CD8+ T cells; [5]): not sufficient to restore; expression levels of dysfunction-related molecules (PD-1, LAG3, CD101, CD103) (Dysf. CD8+ T cells; [5]): significantly reduced; effector cytokine production (Dysf. CD8+ T cells; sorted most dysfunctional subset, added to RepSox): further enhanced
